Results reported in US11497752B2, “Compounds and uses thereof” (Foghorn Therapeutics Inc., priority 2018, dated 2022).

Key:
BRG-1 = BRG-1 (Homo sapiens, UniProt P51532); assay: ATPase catalytic activity of BRG-1 (ADP-Glo in vitro biochemical assay)
BRM = BRM (Homo sapiens, UniProt P51531); assay: ATPase catalytic activity of BRM (ADP-Glo in vitro biochemical assay)
Sequence of BRM (P51531 whole entry): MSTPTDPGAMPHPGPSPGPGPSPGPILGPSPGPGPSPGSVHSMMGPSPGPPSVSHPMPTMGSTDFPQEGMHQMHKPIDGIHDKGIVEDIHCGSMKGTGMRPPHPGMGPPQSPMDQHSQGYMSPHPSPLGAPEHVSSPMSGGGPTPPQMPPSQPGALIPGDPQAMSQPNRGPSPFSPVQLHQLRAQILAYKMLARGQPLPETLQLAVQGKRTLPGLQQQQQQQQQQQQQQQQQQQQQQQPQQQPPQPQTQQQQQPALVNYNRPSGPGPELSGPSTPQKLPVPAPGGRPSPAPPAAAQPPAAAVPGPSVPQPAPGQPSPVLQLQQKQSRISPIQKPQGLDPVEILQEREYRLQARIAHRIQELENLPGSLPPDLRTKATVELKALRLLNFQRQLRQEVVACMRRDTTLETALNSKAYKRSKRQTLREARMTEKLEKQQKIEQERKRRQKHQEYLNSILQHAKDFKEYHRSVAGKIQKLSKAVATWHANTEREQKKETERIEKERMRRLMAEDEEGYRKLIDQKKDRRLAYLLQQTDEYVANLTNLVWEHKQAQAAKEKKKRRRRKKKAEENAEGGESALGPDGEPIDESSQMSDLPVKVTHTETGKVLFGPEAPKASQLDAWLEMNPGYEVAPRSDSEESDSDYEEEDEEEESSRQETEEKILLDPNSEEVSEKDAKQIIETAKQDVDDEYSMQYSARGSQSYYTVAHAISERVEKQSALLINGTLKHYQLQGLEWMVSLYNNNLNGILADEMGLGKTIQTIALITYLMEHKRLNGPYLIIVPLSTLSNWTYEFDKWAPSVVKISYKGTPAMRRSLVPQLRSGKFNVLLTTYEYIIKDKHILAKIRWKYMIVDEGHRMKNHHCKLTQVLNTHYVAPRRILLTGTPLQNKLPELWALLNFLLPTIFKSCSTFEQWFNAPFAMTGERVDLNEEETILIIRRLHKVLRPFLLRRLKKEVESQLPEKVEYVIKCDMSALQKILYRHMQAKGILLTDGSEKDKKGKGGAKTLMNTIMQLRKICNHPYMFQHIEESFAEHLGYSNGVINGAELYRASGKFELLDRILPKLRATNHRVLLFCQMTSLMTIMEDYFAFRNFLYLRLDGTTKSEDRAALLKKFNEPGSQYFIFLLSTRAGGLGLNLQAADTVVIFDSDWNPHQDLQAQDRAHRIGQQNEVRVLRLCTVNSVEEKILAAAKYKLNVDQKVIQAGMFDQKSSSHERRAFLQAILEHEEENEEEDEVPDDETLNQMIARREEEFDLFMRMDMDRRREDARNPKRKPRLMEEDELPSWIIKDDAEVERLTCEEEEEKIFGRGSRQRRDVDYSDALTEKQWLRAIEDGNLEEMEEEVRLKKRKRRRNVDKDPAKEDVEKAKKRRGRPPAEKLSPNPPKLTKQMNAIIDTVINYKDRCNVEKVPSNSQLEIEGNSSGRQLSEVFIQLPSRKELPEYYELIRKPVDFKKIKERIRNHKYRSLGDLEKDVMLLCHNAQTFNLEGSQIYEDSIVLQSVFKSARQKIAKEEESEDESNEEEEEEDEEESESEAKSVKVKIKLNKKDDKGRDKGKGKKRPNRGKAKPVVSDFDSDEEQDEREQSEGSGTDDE

Sequence of BRG-1 (P51532 whole entry): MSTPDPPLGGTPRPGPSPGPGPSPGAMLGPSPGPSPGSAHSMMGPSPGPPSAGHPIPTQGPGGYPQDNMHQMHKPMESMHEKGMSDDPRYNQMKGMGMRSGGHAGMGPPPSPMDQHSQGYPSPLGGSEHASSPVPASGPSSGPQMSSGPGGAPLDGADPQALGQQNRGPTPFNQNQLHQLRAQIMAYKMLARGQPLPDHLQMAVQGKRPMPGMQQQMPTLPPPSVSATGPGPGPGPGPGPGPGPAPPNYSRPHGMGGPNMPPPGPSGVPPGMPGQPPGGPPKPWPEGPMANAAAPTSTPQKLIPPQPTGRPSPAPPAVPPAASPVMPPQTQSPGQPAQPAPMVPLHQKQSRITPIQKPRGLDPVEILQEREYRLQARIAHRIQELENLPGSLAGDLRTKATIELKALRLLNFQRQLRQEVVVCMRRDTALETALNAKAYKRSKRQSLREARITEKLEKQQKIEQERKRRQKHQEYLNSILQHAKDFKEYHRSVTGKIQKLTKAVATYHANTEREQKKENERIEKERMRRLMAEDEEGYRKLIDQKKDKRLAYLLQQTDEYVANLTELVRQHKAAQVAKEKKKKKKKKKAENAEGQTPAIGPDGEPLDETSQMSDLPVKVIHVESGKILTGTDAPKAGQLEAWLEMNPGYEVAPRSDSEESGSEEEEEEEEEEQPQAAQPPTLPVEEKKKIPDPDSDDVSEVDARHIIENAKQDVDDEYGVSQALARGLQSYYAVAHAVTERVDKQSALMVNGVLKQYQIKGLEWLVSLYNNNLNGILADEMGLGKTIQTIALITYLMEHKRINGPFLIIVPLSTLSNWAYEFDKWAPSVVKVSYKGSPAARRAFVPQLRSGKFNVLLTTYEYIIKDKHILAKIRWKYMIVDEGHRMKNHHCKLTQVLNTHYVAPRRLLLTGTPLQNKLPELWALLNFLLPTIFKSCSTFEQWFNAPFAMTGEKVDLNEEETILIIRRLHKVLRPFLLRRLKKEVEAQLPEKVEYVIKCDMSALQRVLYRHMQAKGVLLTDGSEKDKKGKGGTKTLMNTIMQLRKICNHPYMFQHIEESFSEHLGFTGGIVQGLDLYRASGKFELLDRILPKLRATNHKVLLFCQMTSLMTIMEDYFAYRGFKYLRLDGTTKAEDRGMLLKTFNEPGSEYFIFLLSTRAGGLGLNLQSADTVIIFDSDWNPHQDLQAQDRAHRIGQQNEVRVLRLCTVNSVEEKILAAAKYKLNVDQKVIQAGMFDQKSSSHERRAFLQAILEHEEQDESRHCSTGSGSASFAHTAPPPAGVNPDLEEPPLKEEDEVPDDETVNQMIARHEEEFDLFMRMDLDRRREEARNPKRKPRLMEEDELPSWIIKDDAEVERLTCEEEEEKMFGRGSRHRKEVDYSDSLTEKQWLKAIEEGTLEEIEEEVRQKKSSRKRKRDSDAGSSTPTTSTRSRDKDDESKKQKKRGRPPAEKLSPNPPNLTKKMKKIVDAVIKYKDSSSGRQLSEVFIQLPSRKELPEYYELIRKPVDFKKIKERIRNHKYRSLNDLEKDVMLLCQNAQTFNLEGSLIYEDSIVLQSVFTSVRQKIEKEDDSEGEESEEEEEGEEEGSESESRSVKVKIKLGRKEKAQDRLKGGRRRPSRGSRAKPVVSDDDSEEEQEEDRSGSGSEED

SMILES | IC50 (BRG-1) [µM] | IC50 (BRM) [µM] | BRG1 Max % Inhibition (BRG-1; Table 5) [%] | BRM Max % Inhibition (BRM; Table 5) [%] | BRG1 Max % Inhibition (BRG-1; Table 6) [%] | BRM Max % Inhibition (BRM; Table 6) [%]
CSCC[C@H](NC(=O)c1ccc(C(F)(F)F)cc1)C(=O)Nc1nc(-c2ccccc2)cs1 [Compound 68] | > 10 | > 10 | – | – | – | –
CSCC[C@H](NC(=O)c1ccccc1O)C(=O)Nc1nc(-c2ccccc2)cs1 [Compound 69, 2-hydroxy-N-[(1S)-3-methylsulfanyl-1-[(4-phenylthiazol-2-yl)carbamoyl]propyl]benzamide] | > 10 | > 10 | >60 | >60 | – | –
CSCC[C@H](NC(=O)c1cc2ccccc2s1)C(=O)Nc1nc(-c2ccccc2)cs1 [Compound 71, (S)—N-(4-(methylthio)-1-oxo-1-((4-phenylthiazol-2-yl)amino)butan-2-yl)benzo[b]thiophene-2-carboxamide] | > 10 | 1 to 10 | >50 | >60 | – | –
CNC(=O)c1ccc(C(=O)N[C@@H](CCSC)C(=O)Nc2nc(-c3ccccc3)cs2)cc1 [Compound 72, N4-methyl-N1-[(1S)-3-methylsulfanyl-1-[(4-phenylthiazol-2-yl)carbamoyl]propyl]terephthalamide] | > 10 | > 10 | >50 | >60 | – | –
CSCC[C@H](NC(=O)c1cccc(C(C)(C)C)c1)C(=O)Nc1nc(-c2ccccc2)cs1 [Compound 73, (S)-3-(tert-butyl)-N-(4-(methylthio)-1-oxo-1-((4-phenylthiazol-2-yl)amino)butan-2-yl)benzamide] | 1 to 10 | < 1 | >30 | >50 | – | –
CSCC[C@H](NC(=O)c1ccc(CNC(C)=O)cc1)C(=O)Nc1nc(-c2ccccc2)cs1 [Compound 74, 4-(acetamidomethyl)-N-[3-methylsulfanyl-1-[(4-phenylthiazol-2-yl)carbamoyl]propyl]benzamide] | > 10 | > 10 | >30 | >50 | – | –
CSCC[C@H](NC(=O)c1cccc(CN)c1)C(=O)Nc1nc(-c2ccccc2)cs1 [Compound 75] | > 10 | > 10 | >60 | >50 | – | –
CSCC[C@H](NC(=O)c1cccc(C(F)(F)F)c1)C(=O)Nc1nc(-c2ccccc2)cs1 [Compound 77, N-[(1S)-3-methylsulfanyl-1-[(4-phenylthiazol-2-yl)carbamoyl]propyl]-3-(trifluoromethyl)benzamide] | > 10 | > 10 | >30 | >30 | – | –
O=C(CNC(=O)c1cc2c(s1)CCC2)Nc1nc(-c2ccccc2)cs1 [Compound 79, N-[2-oxo-2-[(4-phenylthiazol-2-yl)amino]ethyl]-5,6-dihydro-4H-cyclopenta[b]thiophene-2-carboxamide] | 1 to 10 | < 1 | >30 | >30 | – | –
CNc1ccc(C(=O)N[C@@H](CCSC)C(=O)Nc2nc(-c3ccccc3)cs2)cc1 [Compound 81, 4-(methylamino)-N-[(1S)-3-methylsulfanyl-1-[(4-phenylthiazol-2-yl)carbamoyl]propyl]benzamide] | < 1 | < 1 | >95 | >95 | – | –
CSCC[C@H](NC(=O)c1cccc(CO)c1)C(=O)Nc1nc(-c2ccccc2)cs1 [Compound 84, 3-(hydroxymethyl)-N-[(1S)-3-methylsulfanyl-1-[(4-phenylthiazol-2-yl)carbamoyl]propyl]benzamide] | > 10 | > 10 | >80 | >80 | – | –
CSCC[C@H](NC(=O)c1ccc(CO)cc1)C(=O)Nc1nc(-c2ccccc2)cs1 [Compound 85, 4-(hydroxymethyl)-N-[(1S)-3-methylsulfanyl-1-[(4-phenylthiazol-2-yl)carbamoyl]propyl]benzamide] | 1 to 10 | 1 to 10 | >90 | >95 | – | –

Second part, the compound after the results:

IC50 (BRG-1) [µM] | IC50 (BRM) [µM] | BRG1 Max % Inhibition (BRG-1; Table 5) [%] | BRM Max % Inhibition (BRM; Table 5) [%] | BRG1 Max % Inhibition (BRG-1; Table 6) [%] | BRM Max % Inhibition (BRM; Table 6) [%] | SMILES
> 10 | > 10 | – | – | – | – | CN(C)C(=O)c1cccc(C(=O)NCC(=O)Nc2nc(-c3ccccc3)cs2)c1 [Compound 78]
> 10 | > 10 | >70 | >70 | – | – | CSCC[C@H](NC(=O)c1ccc(S(C)(=O)=O)cc1)C(=O)Nc1nc(-c2ccccc2)cs1 [Compound 86]
1 to 10 | 0.1 to 1 | – | – | >95 | >95 | CS(=O)(=O)c1cccc(C(=O)NCC(=O)Nc2nc(-c3ccc4cc[nH]c(=O)c4c3)cs2)c1 [Compound 88, 3-(methylsulfonyl)-N-(2-oxo-2-((4-(1-oxo-1,2-dihydroisoquinolin-7-yl)thiazol-2-yl)amino)ethyl)benzamide]
0.1 to 1 | < 0.1 | – | – | >80 | >80 | CS(=O)(=O)c1cccc(C(=O)NCC(=O)Nc2nc(-c3cccc(-c4ccncc4)c3)cs2)c1 [Compound 89, 3-(methylsulfonyl)-N-(2-oxo-2-((4-(3-(pyridin-4-yl)phenyl)thiazol-2-yl)amino)ethyl)benzamide]
< 0.1 | < 0.1 | – | – | >50 | >70 | CS(=O)(=O)c1cccc(C(=O)NCC(=O)Nc2nc(-c3cccc(-c4ccncn4)c3)cs2)c1 [Compound 90, 3-(methylsulfonyl)-N-(2-oxo-2-((4-(3-(pyrimidin-4-yl)phenyl)thiazol-2-yl)amino)ethyl)benzamide]
1 to 10 | 0.1 to 1 | – | – | >90 | >95 | CS(=O)(=O)c1cccc(C(=O)NCC(=O)Nc2nc(-c3cccc(C4CCOCC4)c3)cs2)c1 [Compound 91, 3-(methylsulfonyl)-N-(2-oxo-2-((4-(3-(tetrahydro-2H-pyran-4-yl)phenyl)thiazol-2-yl)amino)ethyl)benzamide]
0.1 to 1 | 0.1 to 1 | – | – | >80 | >90 | CS(=O)(=O)c1cccc(C(=O)NCC(=O)Nc2nc(-c3ccc4c(c3)OCCO4)cs2)c1 [Compound 92, N-(2-((4-(2,3-dihydrobenzo[b][1,4]dioxin-6-yl)thiazol-2-yl)amino)-2-oxoethyl)-3-(methylsulfonyl)benzamide]
0.1 to 1 | 0.1 to 1 | – | – | >90 | >90 | Cn1cnc2ccc(-c3csc(NC(=O)CNC(=O)c4cccc(S(C)(=O)=O)c4)n3)cc2c1=O [Compound 93, N-(2-((4-(3-methyl-4-oxo-3,4-dihydroquinazolin-6-yl)thiazol-2-yl)amino)-2-oxoethyl)-3-(methylsulfonyl)benzamide]
1 to 10 | 0.1 to 1 | – | – | >90 | >95 | CS(=O)(=O)NCc1cccc(-c2csc(NC(=O)CNC(=O)c3cccc(S(C)(=O)=O)c3)n2)c1 [Compound 94, N-(2-((4-(3-(methylsulfonamidomethyl)phenyl)thiazol-2-yl)amino)-2-oxoethyl)-3-(methylsulfonyl)benzamide]
< 0.1 | < 0.1 | – | – | >95 | >95 | O=C(CNC(=O)c1ccc2c(c1)CCN2)Nc1nc(-c2cccc(-c3ccncc3)c2)cs1 [Compound 95, N-(2-oxo-2-((4-(3-(pyridin-4-yl)phenyl)thiazol-2-yl)amino)ethyl)indoline-5-carboxamide]
1 to 10 | 0.1 to 1 | – | – | >70 | >70 | O=C(CNC(=O)c1ccc2[nH]ncc2c1)Nc1nc(-c2cccc(-c3ccncc3)c2)cs1 [Compound 96, N-(2-oxo-2-((4-(3-(pyridin-4-yl)phenyl)thiazol-2-yl)amino)ethyl)-1H-indazole-5-carboxamide]
0.1 to 1 | 0.1 to 1 | – | – | >70 | >70 | CSCC[C@H](NC(=O)c1ccccc1)C(=O)Nc1nc(-c2cccc(-c3ccncc3)c2)cs1 [Compound 97, (S)-N-(4-(methylthio)-1-oxo-1-((4-(3-(pyridin-4-yl)phenyl)thiazol-2-yl)amino)butan-2-yl)benzamide]
0.1 to 1 | 0.1 to 1 | – | – | >70 | >90 | CS(=O)(=O)c1cccc(C(=O)NCC(=O)Nc2nc(-c3cccc(-c4nccs4)c3)cs2)c1 [Compound 98, 3-(methylsulfonyl)-N-(2-oxo-2-((4-(3-(thiazol-2-yl)phenyl)thiazol-2-yl)amino)ethyl)benzamide]
< 0.1 | < 0.1 | – | – | >95 | >90 | O=C(CNC(=O)c1ccc2c(c1)CCCN2)Nc1nc(-c2cccc(-c3ccncc3)c2)cs1 [Compound 99, N-(2-oxo-2-((4-(3-(pyridin-4-yl)phenyl)thiazol-2-yl)amino)ethyl)-1,2,3,4-tetrahydroquinoline-6-carboxamide]
1 to 10 | 0.1 to 1 | – | – | >80 | >80 | NCc1ccc(C(=O)NCC(=O)Nc2nc(-c3cccc(-c4ccncc4)c3)cs2)cc1 [Compound 100, 4-(aminomethyl)-N-(2-oxo-2-((4-(3-(pyridin-4-yl)phenyl)thiazol-2-yl)amino)ethyl)benzamide]
0.1 to 1 | 0.1 to 1 | – | – | >95 | >95 | O=C(CNC(=O)c1ccc2cncn2c1)Nc1nc(-c2cccc(-c3ccncc3)c2)cs1 [Compound 101, N-(2-oxo-2-((4-(3-(pyridin-4-yl)phenyl)thiazol-2-yl)amino)ethyl)imidazo[1,5-a]pyridine-6-carboxamide]
